From patent publication US20170088546A1 (priority 2014, published 2017) come the findings set out here.

The target in one assay is Smurf-2 (Homo sapiens, UniProt Q9HAU4). Nature of the assay: HECT E3 ligase autoubiquitinylation TR-FRET assay, Smurf-2. Type of assay: biochemical. From the text: (§1) To determine the HECT E3 ligase selectivity of the compounds, a panel of biochemical HECT E3 ligase autoubiquitinylation assays was employed (Smurf-1, Smurf-2, WWP1, WWP2, ITCH, Nedd4, Nedd4L and E6AP). The conjugation of ubiquitin to a protein substrate is a multistep process. In an initial ATP-requiring step, a thioester bond is formed between the carboxyl terminus of ubiquitin and an internal cystein residue of the ubiquitin-activating enzyme (E1). Activated ubiquitin is then transferred to a specific cystein residue of an ubiquitin-conjugating enzyme (E2). E2s donate ubiquitin to a HECT E3 ligase (E3) from which it is transferred to the substrate protein. HECT E3 ligases can auto-ubiquitinylate. This event is detected in the TR-FRET (Time-Resolved Fluorescence Resonance Energy Transfer) assay used in this panel. The reaction mix contains E1, E2, tagged-E3, biotin-conjugated ubiquitin, the compound and ATP in a suitable buffer and is incubated for 45 minutes to allow auto-ubiquitinylation of the E3 ligase. To measure the extent of ubiquitinylated E3 ligase by TR-FRET, the donor fluorophore Europium cryptate (Eu3+ cryptate), conjugated to streptavidin which subsequently binds to biotinylated ubiquitin, and the modified allophycocyanin XL665 (HTRF® primary acceptor fluorophore) coupled to a tag-specific antibody (HA, His or GST), which recognizes the respective E3 ligase fusion proteins, are added after the reaction is complete. When these two fluorophores are brought together by a biomolecular interaction (in this case ubiquitinylation of the E3 ligase), a portion of the energy captured by the Cryptate during excitation is released through fluorescence emission at 620 nm, while the remaining energy is transferred to XL665. This energy is then released by XL665 as specific fluorescence at 665 nm. Light at 665 nm is emitted only through FRET with Europium.
(§2) Test and reference compounds are prepared at 180×[final] in 90% DMSO, and diluted 1:3 in 90% DMSO.
(§3) For the biochemical assay panel, 50 nl of the test compounds, reference compounds and buffer/DMSO control are transferred to the respective wells of a 384-well white GREINER “SMALL VOLUME” PS plate. The assay panel is run at room temperature on a Biomek FX liquid handling workstation. To the assay plates containing 50 nl compound or control solutions in 90% DMSO, 4.5 ul of E3 ligase solution were added per well, followed by 4.5 ul of the pre-incubated E1/E2/Ub mix or the pre-diluted ubiquitin (LOW control). Plates are shaken vigorously after each addition. In this assay the compound concentrations range from 3 nM to 10 uM in an 8-point dose-response curve.
(§4) After an incubation time of 45 min in the dark, the plates are transferred into the Pherastar fluorescence reader to measure the TR-FRET signal.

For another assay, the target named is Smurf-1 (Homo sapiens, UniProt Q9HCE7). Nature of the assay: biochemical. Type of assay: biochemical. Particulars: biochemical autoubiquitinylation TR-FRET, 45 min incubation, 8-point dose-response 3 nM to 10 uM.
From the text: as §1, §2, §3, §4

Where [1] appears, read: biochemical autoubiquitinylation TR-FRET, 45 min incubation, 8-point dose-response 3 nM to 10 uM, read-out: Smurf-2/IC50.

Like-named read-outs stand apart in the source and are kept apart here.

Chain of Smurf-1 (Q9HCE7 whole entry): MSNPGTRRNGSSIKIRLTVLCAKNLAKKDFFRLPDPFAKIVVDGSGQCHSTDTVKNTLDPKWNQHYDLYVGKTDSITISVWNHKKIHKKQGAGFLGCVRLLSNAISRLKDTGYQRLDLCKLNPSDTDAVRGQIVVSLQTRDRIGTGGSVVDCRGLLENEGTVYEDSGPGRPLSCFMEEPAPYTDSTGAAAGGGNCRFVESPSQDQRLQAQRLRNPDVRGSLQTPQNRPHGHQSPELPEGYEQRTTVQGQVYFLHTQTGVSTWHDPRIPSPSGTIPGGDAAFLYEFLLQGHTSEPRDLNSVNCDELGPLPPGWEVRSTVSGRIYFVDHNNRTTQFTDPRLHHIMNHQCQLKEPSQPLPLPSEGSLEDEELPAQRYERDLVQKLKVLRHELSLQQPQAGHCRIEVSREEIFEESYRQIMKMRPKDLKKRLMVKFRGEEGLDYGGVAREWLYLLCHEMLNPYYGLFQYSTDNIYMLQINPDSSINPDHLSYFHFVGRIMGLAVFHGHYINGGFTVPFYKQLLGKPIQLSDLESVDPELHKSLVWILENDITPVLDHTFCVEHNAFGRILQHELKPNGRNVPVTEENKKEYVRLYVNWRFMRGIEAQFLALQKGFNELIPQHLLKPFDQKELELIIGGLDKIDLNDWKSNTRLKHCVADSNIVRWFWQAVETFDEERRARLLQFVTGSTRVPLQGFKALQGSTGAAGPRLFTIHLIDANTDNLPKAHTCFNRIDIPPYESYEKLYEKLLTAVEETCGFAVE
Chain of Smurf-2 (Q9HAU4 whole entry, species assumed): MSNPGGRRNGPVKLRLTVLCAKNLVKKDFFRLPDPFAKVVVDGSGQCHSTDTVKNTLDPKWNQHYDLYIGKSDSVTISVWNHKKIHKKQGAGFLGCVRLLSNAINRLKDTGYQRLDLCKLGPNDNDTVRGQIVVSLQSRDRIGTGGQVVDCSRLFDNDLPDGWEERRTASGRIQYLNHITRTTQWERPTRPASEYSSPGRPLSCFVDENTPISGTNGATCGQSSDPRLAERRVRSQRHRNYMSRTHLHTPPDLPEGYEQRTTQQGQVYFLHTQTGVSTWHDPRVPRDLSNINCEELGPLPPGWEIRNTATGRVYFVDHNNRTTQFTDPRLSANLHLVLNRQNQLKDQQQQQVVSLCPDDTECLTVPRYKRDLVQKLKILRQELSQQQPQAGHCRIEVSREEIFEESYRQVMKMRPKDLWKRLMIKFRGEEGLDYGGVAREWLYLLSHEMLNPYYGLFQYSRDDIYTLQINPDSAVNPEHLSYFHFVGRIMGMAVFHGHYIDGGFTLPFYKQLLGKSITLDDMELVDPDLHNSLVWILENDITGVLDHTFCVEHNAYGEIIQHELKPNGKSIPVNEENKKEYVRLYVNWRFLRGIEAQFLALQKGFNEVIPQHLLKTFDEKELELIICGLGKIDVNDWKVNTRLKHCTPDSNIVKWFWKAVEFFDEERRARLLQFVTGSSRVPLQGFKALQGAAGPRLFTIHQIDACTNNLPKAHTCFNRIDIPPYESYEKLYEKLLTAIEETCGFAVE

With `Cc1c(NC(=O)c2noc3c2CCSc2ccccc2-3)c(=O)n(-c2ccccc2)n1C` [Example 47, N-(1,5-dimethyl-3-oxo-2-phenyl-2,3-dihydro-1H-pyrazol-4-yl)-4,5-dihydrobenzo[6,7]thiepino[4,5-d]isoxazole-3-carboxamide], the IC50 on Smurf-2 is over 10000 nM; at Smurf-1, 1130 nM.
As to `Cc1c(NC(=O)c2noc3c2CCCc2cc(OC(F)(F)F)ccc2-3)c(=O)n(C2CCCCC2)n1C` [Example 45, N-(2-cyclohexyl-1,5-dimethyl-3-oxo-2,3-dihydro-1H-pyrazol-4-yl)-8-(trifluoromethoxy)-5,6-dihydro-4H-benzo[3,4]cyclohepta[1,2-d]isoxazole-3-carboxamide], the IC50 on Smurf-2 (setting [1]) was determined as 175 nM; at Smurf-1 it was 2.2 nM.
`Cc1ccc(-n2c(=O)c(NC(=O)c3noc4c3CCc3cc(OC(C)C)ccc3-4)c(C)n2C)cc1` [Example 11, N-(1,5-dimethyl-3-oxo-2-(p-tolyl)-2,3-dihydro-1H-pyrazol-4-yl)-7-isopropoxy-4,5-dihydronaphtho[2,1-d]isoxazole-3-carboxamide]: the values for the IC50 on Smurf-2 and on Smurf-1 were over 10000 nM and 1420 nM, respectively.
Turning to `COc1ccc2c(c1)CCCc1c(C(=O)Nc3c(C)n(C)n(-c4ccc(C)cc4C)c3=O)noc1-2` [Example 22, N-(2-(2,4-dimethylphenyl)-1,5-dimethyl-3-oxo-2,3-dihydro-1H-pyrazol-4-yl)-8-methoxy-5,6-dihydro-4H-benzo[3,4]cyclohepta[1,2-d]isoxazole-3-carboxamide], the IC50 on Smurf-2 is over 10000 nM; on Smurf-1 it was 495 nM.
In the case of `Cc1c(NC(=O)c2noc3c2CCCc2cc(OC(F)(F)F)ccc2-3)c(=O)n(-c2ccccc2F)n1C` [Example 3, N-(2-(2-Fluorophenyl)-1,5-dimethyl-3-oxo-2,3-dihydro-1H-pyrazol-4-yl)-8-(trifluoromethoxy)-5,6-dihydro-4H-benzo[3,4]cyclohepta[1,2-d]isoxazole-3-carboxamide], the IC50 was found to be 830 nM at Smurf-2 (setting [1]) and 17 nM against Smurf-1.
For the compound `COc1ccc2c(c1)CCCc1c(C(=O)Nc3c(C)n(C)n(-c4cccc(Cl)c4)c3=O)noc1-2` [Example 28, N-(2-(3-chlorophenyl)-1,5-dimethyl-3-oxo-2,3-dihydro-1H-pyrazol-4-yl)-8-methoxy-5,6-dihydro-4H-benzo[3,4]cyclohepta[1,2-d]isoxazole-3-carboxamide], the IC50 was over 10000 nM against Smurf-2 and 660 nM at Smurf-1.
With `Cc1c(NC(=O)c2noc3c2CCCc2cc(OC(F)(F)F)ccc2-3)c(=O)n(-c2c(Cl)cccc2Cl)n1C` [Example 41, N-(2-(2,6-dichlorophenyl)-1,5-dimethyl-3-oxo-2,3-dihydro-1H-pyrazol-4-yl)-8-(trifluoromethoxy)-5,6-dihydro-4H-benzo[3,4]cyclohepta[1,2-d]isoxazole-3-carboxamide], the results for the IC50 on Smurf-2 (setting [1]) and against Smurf-1 were 390 nM and 4.5 nM, respectively.
Consider `COc1ccc2c(c1)CCCc1c(C(=O)Nc3c(C)n(C)n(Cc4ccccc4)c3=O)noc1-2` [Example 32, N-(2-benzyl-1,5-dimethyl-3-oxo-2,3-dihydro-1H-pyrazol-4-yl)-8-methoxy-5,6-dihydro-4H-benzo[3,4]cyclohepta[1,2-d]isoxazole-3-carboxamide], for which the IC50 is over 10000 nM against Smurf-2 and 695 nM against Smurf-1.
The matching figures for `Cc1c(NC(=O)c2noc3c2CC2C(c4ccccc4-3)C2(Cl)Cl)c(=O)n(-c2ccccc2)n1C` (stereo not shown) [Example 50, 9,9-dichloro-N-(1,5-dimethyl-3-oxo-2-phenyl-2,3-dihydro-1H-pyrazol-4-yl)-8,8a,9,9a-tetrahydrobenzo[3,4]cyclopropa[5,6]cyclohepta[1,2-d]isoxazole-7-carboxamide]: over 10000 nM and 462 nM.
In the case of `COc1ccc2c(c1)CCCc1c(C(=O)Nc3c(C)n(C)n(-c4ccccc4Cl)c3=O)noc1-2` [Example 27, N-(2-(2-chlorophenyl)-1,5-dimethyl-3-oxo-2,3-dihydro-1H-pyrazol-4-yl)-8-methoxy-5,6-dihydro-4H-benzo[3,4]cyclohepta[1,2-d]isoxazole-3-carboxamide], the IC50 on Smurf-2 (setting [1]) worked out at 5800 nM; at Smurf-1, 125 nM.
In the case of `CCn1c(C)c(NC(=O)c2noc3c2CCCc2cc(OC)ccc2-3)c(=O)n1-c1ccccc1Cl` [Example 30, N-(2-(2-chlorophenyl)-1-ethyl-5-methyl-3-oxo-2,3-dihydro-1H-pyrazol-4-yl)-8-methoxy-5,6-dihydro-4H-benzo[3,4]cyclohepta[1,2-d]isoxazole-3-carboxamide], the IC50 came to 6850 nM on Smurf-2 (setting [1]) and 680 nM against Smurf-1.
For `Cc1c(NC(=O)c2noc3c2CCSc2cc(OC(F)(F)F)ccc2-3)c(=O)n(C2CCCCC2)n1C` [Example 4, N-(2-Cyclohexyl-1,5-dimethyl-3-oxo-2,3-dihydro-1H-pyrazol-4-yl)-8-(trifluoromethoxy)-4,5-dihydrobenzo[6,7]thiepino[4,5-d]isoxazole-3-carboxamide] the same measures were 725 nM and 2.6 nM.
Take `CCc1ccc2c(c1)CCCc1c(C(=O)Nc3c(C)n(C)n(-c4ccc(F)cc4)c3=O)noc1-2` [Example 13, 8-ethyl-N-(2-(4-fluorophenyl)-1,5-dimethyl-3-oxo-2,3-dihydro-1H-pyrazol-4-yl)-5,6-dihydro-4H-benzo[3,4]cyclohepta[1,2-d]isoxazole-3-carboxamide]: the IC50 on Smurf-2 (setting [1]) is 7850 nM; at Smurf-1 it was 272 nM.
For `CCc1ccc2c(c1)CCc1c(C(=O)Nc3c(C)n(C)n(-c4ccccc4)c3=O)noc1-2` [Example 7, N-(1,5-dimethyl-3-oxo-2-phenyl-2,3-dihydro-1H-pyrazol-4-yl)-7-ethyl-4,5-dihydronaphtho[2,1-d]isoxazole-3-carboxamide], the IC50 against Smurf-2 is over 10000 nM; against Smurf-1 it was 568 nM.
Regarding `Cc1c(NC(=O)c2noc3c2CCSc2cc(OC(F)(F)F)ccc2-3)c(=O)n(-c2ccccc2F)n1C` [Example 46, N-(2-(2-fluorophenyl)-1,5-dimethyl-3-oxo-2,3-dihydro-1H-pyrazol-4-yl)-8-(trifluoromethoxy)-4,5-dihydrobenzo[6,7]thiepino[4,5-d]isoxazole-3-carboxamide], the IC50 was over 10000 nM against Smurf-2 and 31.5 nM at Smurf-1.
For `COc1ccc2c(c1)CCCCc1c(C(=O)Nc3c(C)n(C)n(C4CCCCC4)c3=O)noc1-2` [Example 5, N-(2-Cyclohexyl-1,5-dimethyl-3-oxo-2,3-dihydro-1H-pyrazol-4-yl)-9-methoxy-4,5,6,7-tetrahydrobenzo[3,4]cycloocta[1,2-d]isoxazole-3-carboxamide], the figures for the IC50 at Smurf-2 (setting [1]) and against Smurf-1 were 8350 nM and 91.8 nM, respectively.
At Smurf-1, `Cc1c(NC(=O)c2noc3c2CCCc2cc(OC(F)(F)F)ccc2-3)c(=O)n(Cc2ccccc2F)n1C` [Example 43, N-(2-(2-fluorobenzyl)-1,5-dimethyl-3-oxo-2,3-dihydro-1H-pyrazol-4-yl)-8-(trifluoromethoxy)-5,6-dihydro-4H-benzo[3,4]cyclohepta[1,2-d]isoxazole-3-carboxamide] showed an IC50 of 58 nM.
On the same count and under the same terms, with `COc1ccc2c(c1)CCCc1c(C(=O)Nc3c(C)n(C)n(Cc4ccc(F)cc4)c3=O)noc1-2` [Example 57, N-(2-(4-fluorobenzyl)-1,5-dimethyl-3-oxo-2,3-dihydro-1H-pyrazol-4-yl)-8-methoxy-5,6-dihydro-4H-benzo[3,4]cyclohepta[1,2-d]isoxazole-3-carboxamide] the figure was 2700 nM.
